Like-named read-outs stand apart in the source and are kept apart here.
Columns and labels:
CI-M6PR = CI-M6PR (Homo sapiens (Human), UniProt P11717); assay: Competitive binding of M6P analogs to biotinylated CI-M6PR on adsorbed pentamannose 6-phosphate (PMP); conditions: for Relative affinity: relative to M6C-Ethyl-NH2 taken as reference = 1
Protocol: 96-Well plates (Maxisorp Nunc) are incubated overnight at 4° C. with 200 μl of PMP (pentamannose 6-phosphate) at the concentration of 200 μg·ml^−1, in carbonate buffer (NaHCO3/Na2CO3 at 0.1M, pH 9.6). The following day, the solution containing the residual PMP is discarded and the wells are saturated, for 1 h at ambient temperature, with 360 μl of 1% gelatin (Type A from Porcine Skin) diluted in PBS (1.9 mM NaH2PO4, 8.1 mM Na2PO4 and 154 mM NaCl, pH 7.4). The wells are then rinsed five times with PBS to which 0.2% gelatin has been added. All the washes and also the dilutions are carried out in the solution of PBS to which 0.2% gelatin has been added. The M6P analogs to be tested at the various concentrations (from 10^−2 to 10^−7 M) are pre-incubated in the presence of pre-biotinylated CI-M6PR (M6PRb) ([…]) for 20 min, then 200 μl of the mixture are incubated in the wells for 2 h, at ambient temperature. After three washes, the wells are incubated for 1 h with a streptavidin-peroxidase solution (250 μl per well; 3.10^−8 M). After three more washes, 200 μl of a solution of OPD (o-phenylenediamine, 1 mg·ml^−1 in citrate buffer, pH 5.0, and 1 μl 30% H2O2.ml^−1; Sigma Aldrich) are added. After incubation for 20 min in the dark at ambient temperature, the optical densities are measured at the wavelength of 450 nm.
The conjugate of formula (III) is evaluated for its affinity with CI-M6PR. The binding affinity of rhGAA and of the rhGAA-M6Pn-α(1,2)-Man-Ethyloxyamino conjugate (28) was evaluated by means of a competitive binding technique with CI-M6PR described in example 2 and compared with the affinity of M6P.

[1] = system: myoblasts from an adult patient suffering from Pomp disease; assay: Cellular maturation of internalized GAA by Western blot; type: cell-based, human; conditions: 50 nM, 48 h incubation, healthy subject myoblasts = 100%
Protocol: The myoblasts are incubated for 48 h in the presence of 50 nM rhGAA or of the rhGAA-M6Pn-α(1,2)-Man-Ethyloxyamino conjugate (28) (conjugate of formula (III)), then lysed and the proteins are extracted. The cellular maturation of the internalized GAA enzyme in the myoblasts of patients suffering from Pomp disease is studied by the SDS polyacrylamide gel separation technique, followed by immunodetection of the GAA by Western blot with an anti-human GAA antibody (anti-LYAG, Genetex) or an anti-human actin antibody (Invitrogen). […] This experiment is representative among two experiments. The thick arrow in FIG. 4 indicates the intermediate form of GAA. The black arrow indicates the mature form of GAA (60-70 kDa).
The mature form of 60 kDa is quantified by considering the band present in the myoblasts originating from a healthy subject to be 100%. The expression of GAA 60 kDa in the patient myoblasts corresponds to 1% of the GAA of a healthy subject and is not increased in the myoblasts treated with rhGAA. Conversely, the treatment with the rhGAA-M6Pn-α(1,2)-Man-Ethyloxyamino conjugate (28) increases the 60-70 kDa band to 47% of the GAA of a healthy subject. […] This activity is important for an application in the treatment of Pomp disease by enzyme therapy, but can also be applicable to all lysosomal diseases.

[2] = system: myoblasts of patients suffering from the adult form of Pomp disease; assay: Internalization: GAA catalytic activity (4-MUG substrate) in cell extracts of treated myoblasts; type: cell-based, human; conditions: 50 nM, 48 h incubation; compared with rhGAA
Protocol: The myoblast-type cells originating from an adult patient suffering from Pomp disease are maintained in primary culture.
The catalytic activity of GAA is measured in the cell extracts using the synthetic substrate 4-methylumbelliferyl-α-D-glucopyranoside (4-MUG). This substrate and the molecular weight standards are obtained from Sigma. The GAA activity in the cell extracts (20 μl) is measured in a reaction volume of 75 μl containing 50 mM citric acid, 115 mM K2HPO4, 110 mM KCl, 10 mM NaCl, pH 5.0, with 6 mM 4-MUG, for 10 min at ambient temperature. The reaction is stopped with 75 μl of 0.1 M Tris HCl, pH 8. The fluorescence is read with an excitation filter at 355 nm and an emission filter at 460 nm in 96-well plates, and compared to a standard curve obtained with 4-methylumbelliferone. The catalytic activity is expressed per mg of protein. Mean±standard deviation.

[3] = inhibition of CI-M6PR binding to adsorbed PMP, Table 1, read-out: IC50
[4] = competitive binding technique of example 2, Example 4 experiments, read-out: 50% inhibitory concentration (IC50), affinity for CI-M6PR

CI-M6PR, sequence (P11717 41-2491): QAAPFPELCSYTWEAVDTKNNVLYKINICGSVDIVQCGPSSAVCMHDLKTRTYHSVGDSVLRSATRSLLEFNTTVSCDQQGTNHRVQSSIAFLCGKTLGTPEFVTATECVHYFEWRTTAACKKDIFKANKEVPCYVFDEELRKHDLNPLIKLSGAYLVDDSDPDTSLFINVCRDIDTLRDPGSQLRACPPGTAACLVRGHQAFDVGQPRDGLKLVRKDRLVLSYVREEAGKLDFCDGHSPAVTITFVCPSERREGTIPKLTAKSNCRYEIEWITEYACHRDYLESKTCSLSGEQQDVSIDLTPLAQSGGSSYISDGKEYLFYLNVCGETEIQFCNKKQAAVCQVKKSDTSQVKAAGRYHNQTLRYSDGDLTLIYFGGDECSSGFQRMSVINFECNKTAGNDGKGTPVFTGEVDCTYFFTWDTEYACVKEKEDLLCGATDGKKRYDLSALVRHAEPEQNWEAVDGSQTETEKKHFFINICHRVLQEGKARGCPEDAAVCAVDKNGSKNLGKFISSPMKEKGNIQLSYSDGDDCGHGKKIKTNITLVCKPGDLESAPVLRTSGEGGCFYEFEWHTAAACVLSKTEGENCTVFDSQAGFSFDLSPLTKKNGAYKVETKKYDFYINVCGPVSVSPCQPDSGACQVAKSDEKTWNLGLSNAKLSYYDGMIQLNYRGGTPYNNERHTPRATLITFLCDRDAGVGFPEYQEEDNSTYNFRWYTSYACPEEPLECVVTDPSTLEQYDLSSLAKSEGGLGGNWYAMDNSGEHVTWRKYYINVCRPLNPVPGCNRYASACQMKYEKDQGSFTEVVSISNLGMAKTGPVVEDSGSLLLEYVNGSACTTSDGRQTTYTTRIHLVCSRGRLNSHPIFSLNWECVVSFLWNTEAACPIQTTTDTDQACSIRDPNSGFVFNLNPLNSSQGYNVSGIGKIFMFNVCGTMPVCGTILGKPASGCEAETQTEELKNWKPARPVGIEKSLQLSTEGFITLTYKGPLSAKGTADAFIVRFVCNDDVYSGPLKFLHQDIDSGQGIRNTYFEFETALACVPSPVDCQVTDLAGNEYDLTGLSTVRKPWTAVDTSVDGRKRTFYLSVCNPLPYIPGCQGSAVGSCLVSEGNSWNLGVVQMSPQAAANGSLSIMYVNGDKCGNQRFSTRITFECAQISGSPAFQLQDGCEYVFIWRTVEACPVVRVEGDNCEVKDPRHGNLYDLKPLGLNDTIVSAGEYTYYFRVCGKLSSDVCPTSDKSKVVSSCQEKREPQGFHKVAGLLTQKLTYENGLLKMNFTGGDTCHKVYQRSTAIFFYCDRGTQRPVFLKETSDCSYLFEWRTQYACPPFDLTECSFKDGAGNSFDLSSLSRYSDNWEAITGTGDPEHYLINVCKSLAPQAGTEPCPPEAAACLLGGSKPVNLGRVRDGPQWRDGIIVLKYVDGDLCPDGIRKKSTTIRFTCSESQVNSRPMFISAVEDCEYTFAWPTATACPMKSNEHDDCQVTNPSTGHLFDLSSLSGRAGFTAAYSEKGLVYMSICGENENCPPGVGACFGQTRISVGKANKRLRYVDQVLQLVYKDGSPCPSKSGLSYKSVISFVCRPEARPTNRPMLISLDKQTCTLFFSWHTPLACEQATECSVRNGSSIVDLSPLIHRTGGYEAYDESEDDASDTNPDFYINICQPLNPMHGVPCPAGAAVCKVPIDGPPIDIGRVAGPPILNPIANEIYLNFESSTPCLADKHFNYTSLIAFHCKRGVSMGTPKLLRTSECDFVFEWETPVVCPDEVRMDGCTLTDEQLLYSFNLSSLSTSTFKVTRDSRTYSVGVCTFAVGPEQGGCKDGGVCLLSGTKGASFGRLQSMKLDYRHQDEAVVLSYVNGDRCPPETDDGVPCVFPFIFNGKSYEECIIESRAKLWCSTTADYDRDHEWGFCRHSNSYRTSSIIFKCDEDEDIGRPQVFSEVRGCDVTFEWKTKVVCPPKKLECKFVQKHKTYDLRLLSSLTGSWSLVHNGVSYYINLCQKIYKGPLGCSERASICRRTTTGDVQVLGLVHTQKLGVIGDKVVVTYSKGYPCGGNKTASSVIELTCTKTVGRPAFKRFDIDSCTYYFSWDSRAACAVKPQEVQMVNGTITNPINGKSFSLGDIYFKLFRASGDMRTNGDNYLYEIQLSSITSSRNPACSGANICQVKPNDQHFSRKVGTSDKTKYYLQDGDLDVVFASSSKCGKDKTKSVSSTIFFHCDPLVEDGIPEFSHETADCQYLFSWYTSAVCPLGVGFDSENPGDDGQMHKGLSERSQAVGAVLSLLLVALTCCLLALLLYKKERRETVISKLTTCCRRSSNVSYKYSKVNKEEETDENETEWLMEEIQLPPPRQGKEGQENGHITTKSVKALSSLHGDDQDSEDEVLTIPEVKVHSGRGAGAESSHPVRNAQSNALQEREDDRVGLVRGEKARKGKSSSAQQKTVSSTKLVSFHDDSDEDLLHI

IC50 (CI-M6PR; [3]) [µM]	Relative affinity (CI-M6PR)	IC50 (CI-M6PR; [4]) [µM]	Compound	mature form of GAA (60-70 kDa band), % of the GAA of a healthy subject [1]	further results
–	–	0.3	rhGAA: recombinant human acid alpha-glucosidase produced in CHO cells, approximately 110 000 Da	not increased	affinity for CI-M6PR, times lower than the rhGAA-M6Pn-α(1,2)-Man-Ethyloxyamino conjugate (28) (CI-M6PR; ratio of IC50 values): 5.5 times
29	3.4	–	NCCO[C@H]1OC(CCP(=O)(O)O)[C@@H](O)[C@H](O)C1O (stereo partly drawn) [M6Pn-Ethyl-NH2]	–	–
99	1	–	NCCO[C@H]1OC(CCC(=O)O)[C@@H](O)[C@H](O)C1O (stereo partly drawn) [M6C-Ethyl-NH2]	–	–
–	–	30	O=C[C@@H](O)[C@@H](O)[C@H](O)[C@H](O)COP(=O)(O)O [Compound M6P, mannose 6-phosphate]	–	–

The remaining lines, values behind:

Compound	IC50 (CI-M6PR; [3]) [µM]	Relative affinity (CI-M6PR)	IC50 (CI-M6PR; [4]) [µM]	mature form of GAA (60-70 kDa band), % of the GAA of a healthy subject [1]	further results
NCCO[C@H]1O[C@H](CO)[C@@H](O)[C@H](O)[C@@H]1O[C@H]1O[C@H](CCC(=O)O)[C@@H](O)[C@H](O)[C@@H]1O [Compound 24, aminoethyl 6,7-dideoxy-7-hydroxycarbonyl-α-D-manno-heptopyranosyl-(1→2)-α-D-mannopyranoside]	17	5.8	–	–	–
rhGAA-M6Pn-α(1,2)-Man-Ethyloxyamino (28): rhGAA functionalized on oligosaccharide chains with phosphonate disaccharide analog 28; conjugate of formula (III)	–	–	–	47%	cell penetration of GAA measured through catalytic activity on 4-MUG [2]: significantly increases

Source: patent US10894803B2, “Multi-functionalized polysaccharide compounds and use thereof for targeting the cation-independent mannose 6-phosphate receptor” (NANOMEDSYN, priority 2015, dated 2021)
